Test results: patent US9566312B2, “Cyclic peptides and use as medicines” (priority 2012, dated 2017)
Like-named read-outs stand apart in the source and are kept apart here. Starred links: 1 amine or outer side, 2 acyl side, 3 side chain; linkers in the order of their positions; H or OH if unused. Non-standard residues stand in square brackets, D forms with d. Residues, ends and D or L forms follow the SMILES beside them. X69 = C[C@H](CCCN1CCC(C(N)=O)CC1)[C@@H](C(=O)[*:2])N(C)[*:1]; X60 = C[C@H](CCCN1CC2CCC(C1)N2C)[C@@H](C(=O)[*:2])N(C)[*:1]; X83 = C[C@H](COC(=O)N1CCC(O)CC1)[C@@H](C(=O)[*:2])N(C)[*:1]; X39 = C[C@H](CN1CCC(C#N)CC1)[C@@H](C(=O)[*:2])N(C)[*:1]; X47 = C[C@H](CN1CCC(F)(F)C1)[C@@H](C(=O)[*:2])N(C)[*:1]; MeBmt = C/C=C/C[C@@H](C)[C@@H](O)[C@H](NC)C(=O)O; NMeVal(4-OMe,3S) = CN[C@H](C(=O)O)[C@H](C)COC; X86 = C[C@@H](CO)[C@@H](C(=O)[*:2])N(C)[*:1]; NMeL = CN[C@@H](CC(C)C)C(=O)O; NMeV = CN[C@H](C(=O)O)C(C)C; dNMeS = CN[C@H](CO)C(=O)O; dNMeA = CN[C@H](C)C(=O)O; Abu = CC[C@H](N)C(=O)O

Legend:
cyclophilin A (CypA) = cyclophilin A (CypA) (Homo sapiens (Human), UniProt P62937); experiment: Inhibitor binding to cyclophilin proteins by SPR, CypA; parameters: unit not given here; conditions: 1:1 binding model
cyclophilin A (CypA), sequence (P62937 whole entry): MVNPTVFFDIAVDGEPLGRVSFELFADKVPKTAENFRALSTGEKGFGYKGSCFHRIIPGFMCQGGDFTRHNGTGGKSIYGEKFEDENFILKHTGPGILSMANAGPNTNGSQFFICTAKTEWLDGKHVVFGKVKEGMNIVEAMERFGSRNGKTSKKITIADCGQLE

cyclophilin B (CypB) = cyclophilin B (CypB) (Homo sapiens (Human), UniProt P23284); experiment: Inhibitor binding to cyclophilin proteins by SPR, CypB; parameters: unit not given here; conditions: 1:1 binding model
cyclophilin B (CypB), sequence (P23284 34-216): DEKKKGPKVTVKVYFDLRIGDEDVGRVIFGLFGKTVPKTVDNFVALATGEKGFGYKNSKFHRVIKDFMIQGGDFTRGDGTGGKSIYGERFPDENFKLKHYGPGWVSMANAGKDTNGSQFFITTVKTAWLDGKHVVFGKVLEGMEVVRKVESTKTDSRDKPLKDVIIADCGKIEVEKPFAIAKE
Method: (§1) Method 1: Measuring Inhibitor Binding to Cyclophilin Proteins
(§2) Binding of inhibitors to expressed cyclophilins was determined using surface plasmon resonance (SPR) experiments. Briefly, avi-tagged cyclophilin proteins with mono-biotinylation were immobilized onto a Biotin CAPture chip (GE Healthcare, cat. #28920234). SPR experiments were carried out on an upgraded Biacore T200 system using a running buffer containing the inhibitor, 10 mM HEPES, pH 7.4, 150 mM NaCl, 0.05% P20, and 3% DMSO. Single-cycle kinetics measurements were used to study the interactions between cyclophilin inhibitors and different cyclophlins. Accordingly, compound at various concentrations was injected to the flow cells with a contact time of 1 min each at a flow rate of 50 μL/min. The final dissociation phase lasts for 10 min following the sample injection. Data was analyzed using Biacore T200 Evaluation Software Version 1.0 and a 1:1 binding model was applied to fit the data to obtain kon, koff, and KD.

CypF = CypF (Homo sapiens (Human), UniProt P30405); experiment: Inhibitor binding to cyclophilin proteins by SPR, CypF; conditions: 1:1 binding model
CypF, sequence (P30405 30-207): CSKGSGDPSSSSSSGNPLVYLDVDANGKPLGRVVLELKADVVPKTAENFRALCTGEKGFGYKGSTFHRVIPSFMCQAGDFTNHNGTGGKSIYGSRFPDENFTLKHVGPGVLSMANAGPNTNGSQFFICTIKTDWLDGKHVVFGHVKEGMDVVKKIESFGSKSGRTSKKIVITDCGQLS
Method: as §1, §2

[1] = system: genotype 1b subgenomic HCV replicon in Huh7.5 cells; type: cell-based, hepatitis C virus; conditions: read-out: RPLN-1b IC50
Method: Method 2: Measuring Inhibitory Effects in a HCV Replicon System
Susceptibility to compounds was analyzed in Huh7.5 cells containing genotype 1a or 1b subgenomic HCV replicons co-expressing a luciferase reporter gene. The original replicons, pFK389lucubineo_3_3′_ET and pH/SG-Neo(L+I), were licensed from ReBlicon GmbH (Germany) and Apath LLC (Saint Louis, Mo.), respectively. The firefly reporter gen was replaced by renilla luciferase reporter gene using standard molecular biology techniques as follows.
Generation of genotype 1b subgenomic replicon: The renilla […]-neomycin phosphotransferase cassette was amplified from pF9 cytomegalovirus (CMV) hRluc-Neo Flexi(R) (Promega) by PCR using Accuprime super mix II (Invitrogen) and a primer set of Ascl hRlucNeo Fwd and NotI hRluc Rev. These two primers have the following sequences and introduce restriction sites for subsequent cloning: Ascl hRlucNeo Fwd, 5 […] 3(Ascl site underlined) (SEQ. ID No. 1), and NotI hRluc Rev, 5[…] 3(NotI site underlined) (SEQ ID No. 2). The amplification product was subcloned into pCR2.1-TOPO (Invitrogen). The resulting plasmid was digested with Ascl and NotI, and the excised fragment (hRluc-Neo) was ligated with the Roche Quick Ligation Kit (Roche) into pFK1389lucubineo_3_3′_ET digested with the same enzymes.
The assay medium for both, luciferase reporter HCV replicon and cytotoxicity assays contains phenol red-free DMEM and lacks G418. […] Luciferase activity of compound treated cells is measured relative to DMSO treated cells after 72 h incubation using Renilla-Glo™ Luciferase Assay (Promega). Cytotoxicity (CC50) is analyzed using Cell Titer-Glo™ (Promega).

[2] = system: peripheral blood mononuclear cells (PBMC); experiment: Anti-proliferative or immunosuppressive activity, BrdU incorporation in PHA-stimulated PBMC; type: cell-based; conditions: PHA 3 μg/ml, 60 hour compound treatment; read-out: EMV PBMC IC50
Method: Method 3: Measuring Anti-Proliferative or Immunosuppressive Activity
The potential anti-proliferative activity of compounds on T-cells was analyzed based on the amount of bromodesoxy uridine (BrdU) incorporated into DNA of fresh peripheral blood mononuclear cells (PBMC) using the BrdU ELISA kit (Roche). The assay is performed in 96-well plate format with 30,000 PBMCs seeded per well in X-VIVO 15 medium (Lonza). T-cell proliferation was stimulated by addition of 3 μg/ml phytohemagglutinin (PHA) in PBMCs obtained from two donors.

[3] = genotype 1b replicon, 72 h incubation

## C/C=C/C[C@@H](C)[C@@H](O)[C@H]1C(=O)N[C@@H](CC)C(=O)N(C)[C@H](C)C(=O)N(C)[C@@H]([C@H](C)CCCN2CCC(C(N)=O)CC2)C(=O)N[C@@H](C(C)C)C(=O)N(C)[C@@H](CC(C)C)C(=O)N[C@@H](C)C(=O)N[C@H](C)C(=O)N(C)[C@@H](CC(C)C)C(=O)N(C)[C@@H](CC(C)C)C(=O)N(C)[C@@H](C(C)C)C(=O)N1C [Compound 2.19.2, 3-[D-Ala]-4-[(2S,3R)-6-(4-carbamoylpiperidin-1-yl)-3-methyl-2-(methylamino)hexanoyl]-cyclosporin] (cyclo(A[dA][NMeL][NMeL][NMeV][MeBmt][Abu][dNMeA][X69]V[NMeL]))
Cyclophilin A (CypA)
  CypA Kd: 0.9
Cyclophilin B (CypB)
  CypB Kd: 0.6
CypF
  CypF Kd: 0.5 nM
[1]; [3]
  IC50: 2700 nM
[2]
  IC50: 32300 nM

## C/C=C/C[C@@H](C)[C@@H](O)[C@H]1C(=O)N[C@@H](CC)C(=O)N(C)[C@H](C)C(=O)N(C)[C@@H]([C@H](C)CCCN2CC3CCC(C2)N3C)C(=O)N[C@@H](C(C)C)C(=O)N(C)[C@@H](CC(C)C)C(=O)N[C@@H](C)C(=O)N[C@H](C)C(=O)N(C)[C@@H](CC(C)C)C(=O)N(C)[C@@H](CC(C)C)C(=O)N(C)[C@@H](C(C)C)C(=O)N1C [Compound 2.19.3] (cyclo(A[dA][NMeL][NMeL][NMeV][MeBmt][Abu][dNMeA][X60]V[NMeL]))
Cyclophilin A (CypA)
  CypA Kd: 0.8
Cyclophilin B (CypB)
  CypB Kd: 0.4
CypF
  CypF Kd: 0.3 nM
[1]; [3]
  IC50: 290 nM
[2]
  IC50: 2000 nM

## C/C=C/C[C@@H](C)[C@@H](O)[C@H]1C(=O)N[C@@H](CC)C(=O)N(C)[C@H](C)C(=O)N(C)[C@@H]([C@H](C)CN2CCC(F)(F)C2)C(=O)N[C@@H](C(C)C)C(=O)N(C)[C@@H](CC(C)C)C(=O)N[C@@H](C)C(=O)N[C@H](C)C(=O)N(C)[C@@H](CC(C)C)C(=O)N(C)[C@@H](CC(C)C)C(=O)N(C)[C@@H](C(C)C)C(=O)N1C [Compound 2.5.18, 3-[D-Ala]-4-[(2S,3R)-4-(3,3-difluoropyrrolidin-1-yl)-3-methyl-2-(methylamino)butanoyl]-cyclosporin] (cyclo(A[dA][NMeL][NMeL][NMeV][MeBmt][Abu][dNMeA][X47]V[NMeL]))
Cyclophilin A (CypA)
  CypA Kd: 3.9
Cyclophilin B (CypB)
  CypB Kd: 1.8
CypF
  CypF Kd: 2 nM
[1]; [3]
  IC50: 9 nM
[2]
  IC50: 12100 nM

## C/C=C/C[C@@H](C)[C@@H](O)[C@H]1C(=O)N[C@@H](CC)C(=O)N(C)[C@H](C)C(=O)N(C)[C@@H]([C@H](C)COCCN2CCN3C(=O)OC[C@@H]3C2)C(=O)N[C@@H](C(C)C)C(=O)N(C)[C@@H](CC(C)C)C(=O)N[C@@H](C)C(=O)N[C@H](C)C(=O)N(C)[C@@H](CC(C)C)C(=O)N(C)[C@@H](CC(C)C)C(=O)N(C)[C@@H](C(C)C)C(=O)N1C [Compound 2.8.11, 3-[D-Ala]-4-[(2S,3S)-3-methyl-2-(methylamino)-4-(2-((S)-3-oxotetrahydro-1H-oxazolo[3,4-a]pyrazin-7(3H)-yl)ethoxy)butanoyl]-cyclosporin]
Cyclophilin A (CypA)
  CypA Kd: 1.3
Cyclophilin B (CypB)
  CypB Kd: 0.6
CypF
  CypF Kd: 0.5 nM
[1]; [3]
  IC50: 58 nM
[2]
  IC50: 12400 nM

## C/C=C/C[C@@H](C)[C@@H](O)[C@H]1C(=O)N[C@@H](CC)C(=O)N(C)[C@H](CO)C(=O)N(C)[C@@H]([C@H](C)COC)C(=O)N[C@@H](C(C)C)C(=O)N(C)[C@@H](CC(C)C)C(=O)N[C@@H](C)C(=O)N[C@H](C)C(=O)N(C)[C@@H](CC(C)C)C(=O)N(C)[C@@H](CC(C)C)C(=O)N(C)[C@@H](C(C)C)C(=O)N1C [Compound 3.2.3, 3-[D-ser]-4-[(2S,3S)-4-methoxy-3-methyl-2-(methylamino)butanoyl]-cyclosporin] (cyclo(A[dA][NMeL][NMeL][NMeV][MeBmt][Abu][dNMeS][NMeVal(4-OMe,3S)]V[NMeL]))
Cyclophilin A (CypA)
  CypA Kd: 15
Cyclophilin B (CypB)
  CypB Kd: 7
CypF
  CypF Kd: 7 nM
[1]
  IC50: 330 nM
[2]
  IC50: 8900 nM

## C/C=C/C[C@@H](C)[C@@H](O)[C@H]1C(=O)N[C@@H](CC)C(=O)N(C)[C@H](C)C(=O)N(C)[C@@H]([C@H](C)CN2CCC(C#N)CC2)C(=O)N[C@@H](C(C)C)C(=O)N(C)[C@@H](CC(C)C)C(=O)N[C@@H](C)C(=O)N[C@H](C)C(=O)N(C)[C@@H](CC(C)C)C(=O)N(C)[C@@H](CC(C)C)C(=O)N(C)[C@@H](C(C)C)C(=O)N1C [Compound 2.5.26, 3-[D-Ala]-4-[(2S,3R)-4-(4-cyanopiperidin-1-yl)-3-methyl-2-(methylamino)butanoyl]-cyclosporin] (cyclo(A[dA][NMeL][NMeL][NMeV][MeBmt][Abu][dNMeA][X39]V[NMeL]))
Cyclophilin A (CypA)
  CypA Kd: 1.3
Cyclophilin B (CypB)
  CypB Kd: 0.8
CypF
  CypF Kd: 0.8 nM
[1]; [3]
  IC50: 29 nM
[2]
  IC50: 11600 nM

## C/C=C/C[C@@H](C)[C@@H](O)[C@H]1C(=O)N[C@@H](CC)C(=O)N(C)[C@H](C)C(=O)N(C)[C@@H]([C@H](C)COC(=O)N2CCC(O)CC2)C(=O)N[C@@H](C(C)C)C(=O)N(C)[C@@H](CC(C)C)C(=O)N[C@@H](C)C(=O)N[C@H](C)C(=O)N(C)[C@@H](CC(C)C)C(=O)N(C)[C@@H](CC(C)C)C(=O)N(C)[C@@H](C(C)C)C(=O)N1C [Compound 2.5.8, 3-[D-Ala]-4-[(2S,3S)-4-((4-hydroxypiperidine-1-carbonyl)oxy)-3-methyl-2-(methylamino)butanoyl]-cyclosporin] (cyclo(A[dA][NMeL][NMeL][NMeV][MeBmt][Abu][dNMeA][X83]V[NMeL]))
Cyclophilin A (CypA)
  CypA Kd: 1.7
Cyclophilin B (CypB)
  CypB Kd: 1.0
CypF
  CypF Kd: 1 nM

## C/C=C/C[C@@H](C)[C@@H](O)[C@H]1C(=O)N[C@@H](CC)C(=O)N(C)[C@H](CCCNC)C(=O)N(C)[C@@H]([C@H](C)COC)C(=O)N[C@@H](C(C)C)C(=O)N(C)[C@@H](CC(C)C)C(=O)N[C@@H](C)C(=O)N[C@H](C)C(=O)N(C)[C@@H](CC(C)C)C(=O)N(C)[C@@H](CC(C)C)C(=O)N(C)[C@@H](C(C)C)C(=O)N1C (stereo in doubt) [Compound 3.2.1, 3-[(R)-2,5-bis(methylamino)pentanoyl]-4-[(2S,3S)-4-methoxy-3-methyl-2-(methylamino)butanoyl]-cyclosporin]
Cyclophilin A (CypA)
  CypA Kd: 6.3
Cyclophilin B (CypB)
  CypB Kd: 3.0
CypF
  CypF Kd: 3.4 nM
[1]; [3]
  IC50: 4800 nM
[2]
  IC50: 34900 nM

## C/C=C/C[C@@H](C)[C@@H](O)[C@H]1C(=O)N[C@@H](CC)C(=O)N(C)[C@H](C)C(=O)N(C)[C@@H]([C@@H](C)CO)C(=O)N[C@@H](C(C)C)C(=O)N(C)[C@@H](CC(C)C)C(=O)N[C@@H](C)C(=O)N[C@H](C)C(=O)N(C)[C@@H](CC(C)C)C(=O)N(C)[C@@H](CC(C)C)C(=O)N(C)[C@@H](C(C)C)C(=O)N1C [Compound 2.17.13, 3-[D-Ala]-4-[(2S,3R)-4-hydroxy-3-methyl-2-(methylamino)butanoyl]-cyclosporin] (cyclo(A[dA][NMeL][NMeL][NMeV][MeBmt][Abu][dNMeA][X86]V[NMeL]))
[1]; [3]
  IC50: 85 nM

## CCCC[C@@H](C)[C@@H](O)[C@H]1C(=O)N[C@@H](CC)C(=O)N(C)[C@H](C)C(=O)N(C)[C@@H]([C@@H](C)CN2CCO[C@H](COC)C2)C(=O)N[C@@H](C(C)C)C(=O)N(C)[C@@H](CC(C)C)C(=O)N[C@@H](C)C(=O)N[C@H](C)C(=O)N(C)[C@@H](CC(C)C)C(=O)N(C)[C@@H](CC(C)C)C(=O)N(C)[C@@H](C(C)C)C(=O)N1C [Compound 2.17.12, 1-dihydro-3-[D-Ala]-4-[(2S,3S)-4-((S)-2-(methoxymethyl)morpholino)-3-methyl-2-(methylamino)butanoyl]-cyclosporin]
Cyclophilin A (CypA)
  CypA Kd: 1.7
Cyclophilin B (CypB)
  CypB Kd: 0.7
CypF
  CypF Kd: 0.8 nM
[1]; [3]
  IC50: 75 nM
